Assay [1] in a line: cytotoxicity in HPDE-C7 cells, cell-based, fluorescence, HTS (AID 430). The assay is classed as functional. The conditions noted are these: Homo sapiens.
A short description of assay [2]: cytotoxicity in KRAS-transformed pancreatic duct cells, primary screen, cell-based, fluorescence, HTS (AID 431). The assay is classed as functional. The following applies: Homo sapiens.
Assay [3] concerns the target Cytochrome P450 2C19 (Homo sapiens, UniProt P33261). Kind of assay: qHTS Assay for Inhibitors and Substrates of Cytochrome P450 2C19. [Related pubchem assays: 410 ]. The assay is classed as ADME. The following applies: read-out: Potency. A general note: Quantitative high-throughput screening tests each substance at several concentrations.
Assay [4] addresses Cytochrome P450 2C9 (Homo sapiens, UniProt P11712). The following applies: Potency.
Assay [5] is described as follows: half-maximal inhibitory concentration for glucagon-like peptide-1 release, STC-1 cell line, dose-response (AID 1117345). The assay is classed as functional, cell-based.
A short description of assay [6]: Glucagon-like peptide 1 release potency, NCI-H716 cell line, dose-response, half-maximal inhibitory concentration (AID 1117344). It counts as functional, cell-based.
Assay [7] can be described thus: P. falciparum 3D7-ScDHODH growth inhibitors, dose response, SYBR Green, dry powder samples (AID 1159570).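 Further: parasite growth measured after 72 hours of compound exposure.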 It counts as functional, cell-based.
Assay [8] in a line: HepG2 cell cytotoxicity, dose response, cytotoxicity control, plate reader, dry powder samples (AID 1159569).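 Further: inhibitor potency with signal falling toward the positive control level.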 The assay is classed as functional, cell-based.
Assay [9] in a line: P. falciparum Dd2 growth inhibitors, dose response, SYBR Green, cherry-picked samples (AID 1159567). It counts as functional, cell-based.
Assay [10] can be described thus: P. falciparum Dd2 growth inhibitors, dose response, SYBR Green, dry powder samples (AID 1159566).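 Further: potency for growth inhibition with lower SYBR green DNA signal.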 The assay is classed as functional, cell-based.
Assay [11] is described as follows: P. falciparum ATP4 D1247Y mutant growth inhibitors, dose response, NITD609-resistant line, SYBR Green, dry powder (AID 1159571).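 Further: parasites synchronized at ring stage by sorbitol before testing.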 The assay is classed as functional, cell-based.
For assay [12], the target named is T1, Ubiquitin-conjugating enzyme E2 N (Homo sapiens, UniProt P61088).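 Further: Dose-response confirmation in a TR-FRET assay detecting UBC13-driven polyubiquitin chain formation, inhibition measured.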
T1 sequence (P61088 whole entry): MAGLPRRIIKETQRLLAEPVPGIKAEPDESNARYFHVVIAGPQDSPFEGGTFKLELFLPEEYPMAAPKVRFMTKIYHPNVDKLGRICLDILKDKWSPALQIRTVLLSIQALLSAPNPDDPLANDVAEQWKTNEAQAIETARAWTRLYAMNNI
It counts as functional.

These results are taken from ChEMBL document CHEMBL1201862, “PubChem BioAssay data set” (2004).

Activity calls are given as the source filed them.

Cytochrome P450 2C19, sequence (P33261 whole entry): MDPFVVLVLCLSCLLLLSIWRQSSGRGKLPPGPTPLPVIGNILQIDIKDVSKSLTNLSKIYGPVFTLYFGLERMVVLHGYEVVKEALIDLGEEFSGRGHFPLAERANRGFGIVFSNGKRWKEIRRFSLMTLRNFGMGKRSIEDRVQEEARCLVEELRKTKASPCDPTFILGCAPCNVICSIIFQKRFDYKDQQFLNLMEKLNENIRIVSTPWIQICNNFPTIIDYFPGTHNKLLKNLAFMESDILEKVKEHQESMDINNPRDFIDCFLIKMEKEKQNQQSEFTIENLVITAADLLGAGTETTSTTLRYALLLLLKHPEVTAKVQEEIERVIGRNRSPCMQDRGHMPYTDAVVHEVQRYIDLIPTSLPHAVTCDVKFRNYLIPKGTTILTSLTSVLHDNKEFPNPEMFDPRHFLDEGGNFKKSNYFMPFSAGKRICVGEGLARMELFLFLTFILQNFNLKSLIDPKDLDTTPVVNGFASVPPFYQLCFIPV
Cytochrome P450 2C9, sequence (P11712 whole entry): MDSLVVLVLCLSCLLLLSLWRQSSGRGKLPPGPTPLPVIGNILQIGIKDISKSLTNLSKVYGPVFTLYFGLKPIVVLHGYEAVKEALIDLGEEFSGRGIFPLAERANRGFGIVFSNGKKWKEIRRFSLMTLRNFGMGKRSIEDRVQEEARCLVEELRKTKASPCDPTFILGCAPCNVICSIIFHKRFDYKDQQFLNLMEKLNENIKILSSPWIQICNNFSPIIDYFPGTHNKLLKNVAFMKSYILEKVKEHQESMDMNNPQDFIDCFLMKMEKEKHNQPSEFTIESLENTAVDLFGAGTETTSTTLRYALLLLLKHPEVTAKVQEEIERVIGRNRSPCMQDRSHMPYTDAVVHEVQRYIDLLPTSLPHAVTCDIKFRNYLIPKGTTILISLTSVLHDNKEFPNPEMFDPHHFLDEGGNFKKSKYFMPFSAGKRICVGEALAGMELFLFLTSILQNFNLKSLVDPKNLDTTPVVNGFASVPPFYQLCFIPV

With `CC1(C)Cc2c(C#N)c(NCc3ccco3)nc(-c3ccco3)c2CO1`, the EC50 (in general, the concentration needed to bring the measured effect to its halfway point) was 10.1 µM (active) in assay [1] and > 20 µM (not active) in assay [2].
As for `NCCC[C@@H](CC(=O)N[C@@H]1CCNC[C@H]1C(=O)N[C@H](CC(=O)N[C@@H](CCC(=O)O)CC(=O)O)Cc1ccccc1)NC(=O)C[C@H](CO)NC(=O)[C@@H]1CNCC[C@H]1N`, the AC50 in assay [3] and in [4] was 15.8 µM (inconclusive) each time.
With `COC(=O)C1C(c2ccccc2)C2C(=O)c3c(OC)cc(OC)cc3O[C@@]12c1ccc(OC)cc1` (stereo not given in full), the AC50 in [3] is 0.001 µM (inconclusive).
Take `O=C(Nc1ccc(S(=O)(=O)N2CCOCC2)cc1)c1cc(Cl)ccc1NS(=O)(=O)c1ccc(Cl)s1`: the IC50 in assay [5] and in assay [6] was > 40 µM (inactive) each time.
As to `CC(C)(C)[S@+]([O-])N1Cc2cc(C(=O)NCCN3CCCCC3)nc(-c3cccc(-c4cccc(C#N)c4)c3)c2[C@@H]1CCO`, the AC50 in assay [7] was 629 nM (active); in assay [8], 91.7 µM (active); in assay [9] it was 606 nM (active); in [10] it was 643 nM (active); in assay [11], 1.8 µM (active).
For `O=C(c1cccnc1)N1CC(=O)N2[C@H](C1)[C@@H](c1ccc(-c3cccnc3)cc1)[C@@H]2CO` the same measures were 938 nM (active), > 100 µM (inactive), 497 nM (active), 553 nM (active) and 0.693 µM (active).
As for `CN(C(=O)CN(CCO)CC(=O)N(C)C(C)(C)Cc1ccccc1)C(C)(C)Cc1ccccc1` [OXETHAZAINE], the IC50 – broadly, the midpoint of a concentration-inhibition curve – was > 20 µM (inactive) in [12], > 40 µM (inactive) in assay [5] and 25.1 µM (inactive) in [6].
